# From patent publication US20240270855A1, “NEURO-MESENCHYME UNITS CONTROL ILC2 AND OBESITY VIA A BRAIN-ADIPOSE CIRCUIT” (Fundação D. Anna de Sommer Champalimaud e Dr. Carlos Montez …, priority 2021, published 2024)
# B1: GDNF: glial cell-derived neurotrophic factor, a GFRα ligand that activates RET (protein, UniProt P39905 78-211, looked up)
# Glial cell line-derived …: SPDKQMAVLPRRERNRQAAAANPENSRGKGRRGQRGKNRGCVLTAIHLNVTDLGLGYETKEELIFRYCSGSCDAAETTYDKILKNLSRNRRLVSDKVGQACCRPIAFDDDLSFLDDNLVYHILRKHSAKRCGCI
# Tests used:
# PDGFRA positive MSC = assay: RNA sequencing of PDGFRA positive MSC from 6-OHDA-treated mice; assay type: in vivo; details: RNAseq, 6-OHDA vs vehicle
# GAT = assay: Quantitative RT-PCR gene expression in GAT and GAT cell populations after 6-OHDA or clenbuterol; assay type: in vivo, mice; details: for expression of IL-33: GAT and PDGFRA+MSCs of treated mice; for Gdnf expression in other mesenchymal counterparts, adipocytes and endothelial cells: GAT cell populations; for expression of IL-25: PDGFRA+MSCs of treated mice; for Gdnf expression in PDGFRA+MSC: sorted GAT cell population; for Gdnf expression in the GAT: total GAT RNA
# [1] = test system: dopaminergic and noradrenergic neurons; assay: Chemical sympathetic ablation with 6-OHDA, GAT ILC2 cytokines by flow cytometry; assay type: in vivo, mice
# RET [2] = biological target: RET (Homo sapiens, UniProt P07949); details: Akeno-Stuart et al., Cancer Res. 2007; cited from earlier work
# Chain of RET (Homo sapiens, UniProt P07949) (P07949 29-1114): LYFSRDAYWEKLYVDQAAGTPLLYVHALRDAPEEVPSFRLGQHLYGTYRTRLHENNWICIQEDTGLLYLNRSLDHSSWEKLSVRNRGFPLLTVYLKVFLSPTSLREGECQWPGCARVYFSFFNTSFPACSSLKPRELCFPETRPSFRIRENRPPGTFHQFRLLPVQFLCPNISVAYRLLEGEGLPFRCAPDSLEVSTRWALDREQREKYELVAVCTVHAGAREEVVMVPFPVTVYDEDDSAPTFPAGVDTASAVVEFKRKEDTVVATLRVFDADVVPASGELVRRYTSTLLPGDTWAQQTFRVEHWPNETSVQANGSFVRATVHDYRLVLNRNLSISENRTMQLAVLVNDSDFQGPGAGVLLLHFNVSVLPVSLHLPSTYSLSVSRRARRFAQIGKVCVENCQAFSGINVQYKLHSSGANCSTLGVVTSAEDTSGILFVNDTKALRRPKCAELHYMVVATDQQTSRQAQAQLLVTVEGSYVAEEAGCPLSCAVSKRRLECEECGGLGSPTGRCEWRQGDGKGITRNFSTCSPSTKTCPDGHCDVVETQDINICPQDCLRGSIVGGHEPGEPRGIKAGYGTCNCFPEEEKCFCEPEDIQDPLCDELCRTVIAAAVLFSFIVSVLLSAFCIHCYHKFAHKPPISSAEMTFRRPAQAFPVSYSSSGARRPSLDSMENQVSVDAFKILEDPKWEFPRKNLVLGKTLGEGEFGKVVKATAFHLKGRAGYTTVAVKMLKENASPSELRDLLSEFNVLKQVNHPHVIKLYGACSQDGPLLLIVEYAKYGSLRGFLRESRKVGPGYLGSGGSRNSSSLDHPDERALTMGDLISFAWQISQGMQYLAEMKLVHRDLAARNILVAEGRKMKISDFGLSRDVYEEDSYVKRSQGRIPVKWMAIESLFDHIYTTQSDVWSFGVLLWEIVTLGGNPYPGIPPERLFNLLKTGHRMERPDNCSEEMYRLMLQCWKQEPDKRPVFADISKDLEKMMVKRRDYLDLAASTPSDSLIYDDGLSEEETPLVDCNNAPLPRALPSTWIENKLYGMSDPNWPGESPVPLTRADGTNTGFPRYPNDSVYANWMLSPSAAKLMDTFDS
# DREADD-carrying neurons = assay: Chemogenetic modulation of GAT neurons (AAV DREADD injected in GAT, then CNO); assay type: in vivo, mice; details: for interleukin-33 (Il33) expression: vs contralateral control
# RET [3] = details: Tokugawa et al., Neurochem Int. 2003; cited from earlier work
# [4] = biological target: T1, beta-2 adrenergic receptor (ADRB2) (Mus musculus, UniProt P18762); assay: Systemic activation of ADRB2 with clenbuterol, GAT ILC2 cytokines; assay type: in vivo, mice; details: clenbuterol in drinking water, 10 mg/kg/day, 8 days
# T1 construct: endogenous in cells; host or cells: C57BL/6J mice in vivo
# T1 sequence (P18762 whole entry): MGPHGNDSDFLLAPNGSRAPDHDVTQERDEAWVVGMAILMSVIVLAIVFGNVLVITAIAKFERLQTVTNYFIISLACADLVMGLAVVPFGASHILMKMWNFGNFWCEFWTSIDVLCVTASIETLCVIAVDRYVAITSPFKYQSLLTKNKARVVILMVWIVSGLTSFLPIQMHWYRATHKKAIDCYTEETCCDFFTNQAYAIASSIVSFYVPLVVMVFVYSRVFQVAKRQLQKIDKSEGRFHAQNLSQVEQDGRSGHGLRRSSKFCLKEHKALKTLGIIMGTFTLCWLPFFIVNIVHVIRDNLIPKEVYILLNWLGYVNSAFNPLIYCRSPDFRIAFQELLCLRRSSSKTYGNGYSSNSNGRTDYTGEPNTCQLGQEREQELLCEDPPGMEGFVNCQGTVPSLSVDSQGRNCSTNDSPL
# purified GAT PDGFRA+MSCs = assay: In vitro MSC activation with clenbuterol, MSC-derived GDNF; assay type: cell-based, mice; details: 10 μg/ml clenbuterol, 16 hours
# Protocol: In vitro and in vivo MSC activation: For in vitro experiments, purified GAT PDGFRA+MSCs were cultured in complete DMEM (supplemented with 10% FBS, 1% HEPES, sodium pyruvate, glutamine, streptomycin and penicillin (Corning)) at 37° C. After 2 hours of rest in complete DMEM without FBS, MSCs were stimulated for 16 hours with 10 μg/ml clenbuterol. For RNA analysis, MSCs were lysed using RLT buffer (Qiagen). For GDNF protein analysis, MSCs were incubated with brefeldin A (eBioscience) during clenbuterol stimulation prior to intracellular staining.
# [5] = test system: GAT explant/ILC2 co-cultures; assay: GAT explant/ILC2 co-culture with GDNF, Ucp1 expression; assay type: cell-based, mice; details: 50 ng/mL, 16 hours, Ret^WT vs Ret^Δ ILC2; RET dependent
# Protocol: Quantitative RT-PCR: Total RNA from sorted or cultured cells was extracted using RNeasy micro kit or RNeasy mini kit (Qiagen) according to the manufacturer's protocol. When indicated, total adipose tissue or adipocyte fraction was collected to Trizol (Invitrogen) followed by chloroform and isopropanol RNA extraction, according to the manufacturer's protocol. RNA concentration was determined using Nanodrop Spectrophotometer (Nanodrop Technologies). Quantitative real-time PCR was performed in StepOne and QuantStudio 5 real-time PCR systems (Applied Biosystems) with Hprt and Gapdh as housekeeping genes. Briefly, High Capacity RNA-to-cDNA Kit (Applied Biosystems) were used to retro-transcribe RNA, followed by a pre-amplification PCR using TaqMan PreAmp Master Mix (Applied Biosystems). TaqMan Gene Expression Master Mix (Applied Biosystems) was used in the real-time PCR. TaqMan Gene Expression Assays (Applied Biosystems) were the following: Hprt Mm00446968_m1; Gapdh Mm99999915_g1; […] Mm00439646_m1; […] Mm00434204_m1; Areg Mm01354339_m1; Penk Mm01212875_m1; Ret Mm00436304_m1; Gdnf Mm00599849_m1; Ucp1 Mm01244861_m1; Adrb2 Mm02524224_s1; Il25 Mm00499822_m1; and Il33 Mm00505403_m1. Analysis was performed using the comparative CT method (2^−ΔCT). When comparison or fold change between samples was required, the comparative ΔCT method (2^−ΔΔCT) was applied. […]
# [6] = GAT, 6-OHDA 200 mg/kg intraperitoneally 3 days and 1 day before analysis, vs vehicle
# [7] = AAV(3D) (activator DREADD), vs sham contralateral control
# [8] = AAV(4D) (inhibitor DREADD), vs sham contralateral control
molecule,measurement,setting,value
"NCCc1cc(O)c(O)cc1O [6-OHDA, 6-hydroxydopamine]",GDNF expression by PDGFRA positive MSC,PDGFRA positive MSC,significantly reduced
same,expression of IL-33,GAT,unperturbed
same,"Gdnf expression in other mesenchymal counterparts, adipocytes and endothelial cells",GAT,unperturbed
same,expression of IL-25,GAT,unperturbed
same,Gdnf expression in PDGFRA+MSC,GAT,modulated
same,Gdnf expression in the GAT,GAT,modulated
same,ILC2 cytokine production,[1]; Adrb2^ΔIl7ra mice,still impaired
same,ILC2-derived IL-13,[1]; [6],pronounced reduction
same,ILC2-derived Met-Enk,[1]; [6],pronounced reduction
same,ILC2-derived interleukin (IL-) 5,[1]; [6],pronounced reduction
same,ILC2 cytokine production,[1]; Ret^ΔIl5 mice,unperturbed
same,percentage of CD4 T cells,[1]; after 6-OHDA administration,no change
"CCN1CCN(Cc2ccc(NC(=O)Nc3ccc(Oc4cc(NC)ncn4)cc3)cc2C(F)(F)F)CC1 [AST 487, 1-[4-[(4-ethylpiperazin-1-yl)methyl]-3-(trifluoromethyl)phenyl]-3-[4-[6-(methylamino)pyrimidin-4-yl]oxyphenyl]urea]",RET autophosphorylation and activation of downstream effectors,RET [2],inhibit RET autophosphorylation
"C[N+]1([O-])CCN(C2=Nc3cc(Cl)ccc3Nc3ccccc32)CC1 [CNO, Clozapine-N-oxide]",GDNF expression in GAT,DREADD-carrying neurons; [7],increased
same,ILC2 function,DREADD-carrying neurons; [7],increased
same,interleukin-33 (Il33) expression,DREADD-carrying neurons; AAV(3D),did not affect
same,GDNF expression in GAT,DREADD-carrying neurons; [8],reduced
same,innate type 2 cytokines,DREADD-carrying neurons; [8],reduced
same,interleukin-33 (Il33) expression,DREADD-carrying neurons; AAV(4D),did not affect
"CCN(CC)CCCC(C)Nc1cc(/C=C/c2ccccc2Cl)nc2cc(Cl)ccc12 (centres unmarked) [XIB4035, N(4)-(7-chloro-2-[(E)-2-(2-chloro-phenyl)-vinyl]-quinolin-4-yl)-N(1),N(1)-diethyl-pentane-1,4-diamine]",RET autophosphorylation,RET [3],induced RET autophosphorylation
CC(C)(C)NCC(O)c1cc(Cl)c(N)c(Cl)c1 (centres unmarked) [clenbuterol],ILC2-derived cytokines in the GAT,[4],increased
same,expression of IL-33,GAT,unperturbed
same,"Gdnf expression in other mesenchymal counterparts, adipocytes and endothelial cells",GAT,unperturbed
same,expression of IL-25,GAT,unperturbed
same,Gdnf expression in PDGFRA+MSC,GAT,modulated
same,Gdnf expression in the GAT,GAT,modulated
same,MSC-derived GDNF,purified GAT PDGFRA+MSCs,increased
B1,Ucp1 expression,[5],efficiently induced
same,RET autophosphorylation,RET [3],induced RET autophosphorylation
